Numbers after ± are expanded uncertainties.

In the case of `COc1ccc(C2(c3ccc(OC)c(C)c3)OC(=O)c3ccccc32)cc1C` [3,3-bis(4-methoxy-3-methylphenyl)-1(3H)-isobenzofuranone], where the note is “Crystal, DTA”, the Normal melting temperature worked out at 110.1 ± 0.4 °C. Also, the Glass transition temperature (Glass, Adiabatic calorimetry) turned out to be 41.2 ± 0.1 °C.

The values are drawn from the NIST ThermoML archive (doi:10.1016/j.tca.2016.05.007).
